Experimental data: US8324378B2, “Prodrugs and conjugates of prenylation inhibitors” (Purdue Research Foundation, priority 2007, dated 2012)
Where two headings read alike, the source gives them in different places.

Experiments:
FTase [1] = target: T1, FTase (Homo sapiens, UniProt P49354+P49356); conditions: background, have been shown; cited from earlier work
FTase [2] = target: T1, FTase; experiment: in vitro inhibition of FTase by farnesylated monophosphates; type: biochemical
[3] = read-out: IC50 for inhibition of FTase

IC50 (FTase [2]; [3]) [nM]	Structure (SMILES)	inhibition of FTase, described in words (FTase [1])	further results
–	C=CCC(=CCOP(=O)(O)OP(=O)(O)O)CCC=C(C)CCC=C(C)C [pyrophosphate of 3-allylfarnesol]	nanomolar inhibitors	–
–	CC(C)=CCCC(C)=CCCC(=CCOP(=O)(O)O)CC=C(C)C [3-(3,3-dimethylallyl)farnesyl monophosphate]	–	IC50 (FTase [2]; highest dose tested 10 uM, read-out: IC50 for inhibition of FTase (not showing 50% inhibition at the highest dose tested)): > 10000 nM
–	CC(C)=CCCC(C)=CCCC(=CCOP(=O)(O)OP(=O)(O)O)C(C)(C)C [pyrophosphate of 3-t-butylfarnesol]	nanomolar inhibitors	–
–	CC(C)=CCCC(C)=CCCC(=CCOP(=O)(O)OP(=O)(O)O)CC=C(C)C [pyrophosphate of 3-(3,3-dimethylallyl)farnesol]	protein-selective inhibitor	–
~11	C=CCC(=CCOP(=O)(O)O)CCC=C(C)CCC=C(C)C [3-Allylfarnesyl monophosphate, 3-allylfarnesyl monophosphate]	–	–
~16	CC(C)=CCCC(C)=CCCC(=CCOP(=O)(O)O)C(C)(C)C [3-t-butylfarnesyl monophosphate]	–	–
